According to ChEMBL document CHEMBL3271972, “Potentiation of the estrogenic activity of stilbestrol by spiro (cyclohexane-1,2'-indan)-1',4-dione” (1976):

Assays:
Assay type in all cases: functional
Mus musculus [1] = test: Estrogenic activity in albino ICI mouse assessed as body weight at 0.1 ug, sc qd for 3 days (reference value: 12.1 +/- 0.7 gram)
Mus musculus [2] = test: Estrogenic activity in albino ICI mouse assessed as uterus weight at 0.1 ug, sc qd for 3 days (reference value: 28 +/- 2 mg)
Mus musculus [3] = test: Estrogenic activity in albino ICI mouse assessed as body […] ratio at 0.1 ug, sc qd for 3 days (reference value: 232.2 +/- 10.4)
Mus musculus [4] = test: Estrogenic activity in albino ICI mouse assessed as body weight at 100 ug, sc qd for 3 days (reference value: 12.1 +/- 0.7 gram)
Mus musculus [5] = test: Estrogenic activity in albino ICI mouse assessed as uterus weight at 100 ug, sc qd for 3 days (reference value: 28 +/- 2 mg)
Mus musculus [6] = test: Estrogenic activity in albino ICI mouse assessed as body […] ratio at 100 ug, sc qd for 3 days (reference value: 232.2 +/- 10.4)
Mus musculus [7] = test: Potentiation of stilbestrol-induced estrogenic activity in albino ICI mouse assessed as body weight at 0.1 ug, sc qd for 3 days (reference value: 12.1 +/- 0.7 gram)
Mus musculus [8] = test: Potentiation of stilbestrol-induced estrogenic activity in albino ICI mouse assessed as body weight at 100 ug, sc qd for 3 days (reference value: 12.1 +/- 0.7 gram)
Mus musculus [9] = test: Potentiation of stilbestrol-induced estrogenic activity in albino ICI mouse assessed as uterus weight at 0.1 ug, sc qd for 3 days (reference value: 28 +/- 2 mg)
Mus musculus [10] = test: Potentiation of stilbestrol-induced estrogenic activity in albino ICI mouse assessed as uterus weight at 100 ug, sc qd for 3 days (reference value: 28 +/- 2 mg)
Mus musculus [11] = test: Potentiation of stilbestrol-induced estrogenic activity in albino ICI mouse assessed as body […] ratio at 0.1 ug, sc qd for 3 days (reference value: 232.2 +/- 10.4)
Mus musculus [12] = test: Potentiation of stilbestrol-induced estrogenic activity in albino ICI mouse assessed as body […] ratio at 100 ug, sc qd for 3 days (reference value: 232.2 +/- 10.4)

**Q.** Which Activity (Mus musculus [1]) does the source give for CC/C(=C(/CC)c1ccc(O)cc1)c1ccc(O)cc1 [DIETHYLSTILBESTROL] here?
**A.** 16.8 g

**Q.** What about the Activity (Mus musculus [2]) of the same compound?
**A.** 148 mg

**Q.** What about the Ratio (Mus musculus [3]) of the same compound?
**A.** 882

**Q.** Which results are given for O=C1CCC2(CC1)Cc1ccccc1C2=O?
**A.** Activity (Mus musculus [1]): 14.1 g; Activity (Mus musculus [4]): 13.3 g; Activity (Mus musculus [2]): 35.5 mg; Activity (Mus musculus [5]): 28.3 mg; Ratio (Mus musculus [3]): 252; Ratio (Mus musculus [6]): 212.7; Activity (Mus musculus [7]): 15.2 g; Activity (Mus musculus [8]): 14.1 g; Activity (Mus musculus [9]): 145 mg; Activity (Mus musculus [10]): 192.3 mg; Ratio (Mus musculus [11]): 957.1; Ratio (Mus musculus [12]): 1366.9
